According to patent US12497370B2, “Isoxazoline derivatives” (Elanco Tiergesundheit AG, priority 2019, dated 2025):

test system: fleas (Ctenocephalides felis); test: In vitro evaluation of ingestion activity against fleas; settings: flea ingestion test, compound in organic bovine blood (0.5% DMSO), adult fleas, percent mortality between 2 h and 48 h post infestation, read-out: EC50 (the source's name)
Method: In Vitro Evaluation of Ingestion Activity Against Fleas (Ctenocephalides felis)
For flea ingestion tests, serial dilutions of the compound stock were performed using DMSO to achieve the desired range for EC50 and EC90 determination. An aliquot of each compound dilution was added to organic bovine blood with a final DMSO concentration of 0.5% and placed in an artificial feeding container. Fipronil is included to serve as a positive control. Ten newly emerged unfed adult fleas, 0-7 days old Ctenocephalides felis, from a laboratory colony, were aspirated into each vial or cage. The cages for flea ingestion assays were held in a temperature-controlled artificial feeding apparatus to allow continual access to organic bovine blood containing the desired concentration of compound. Fresh aliquots of compound-spiked bovine blood were provided daily for the duration of the study. Fleas were evaluated for percent mortality at various time points between 2 h and 48 h post infestation. Fleas showing normal movement and/or jumping ability were considered viable and those showing no movement after tapping the vials were scored as dead.

Compound	LC50
Cc1cc(C2=NOC(c3cc(C(F)(F)F)cc(Cl)c3F)(C(F)(F)F)C2)ccc1C(=O)NCC(=O)NCC1CC1 (racemic) [Example 3.8, N-[2-(cyclopropylmethylamino)-2-oxo-ethyl]-2-methyl-4-[(5RS)-5-[3-chloro-2-fluoro-5-(trifluoromethyl)phenyl]-5-(trifluoromethyl)-4H-isoxazol-3-yl]benzamide]	< 1 mg/L
Cc1cc(C2=NOC(c3cc(C(F)(F)F)cc(Cl)c3F)(C(F)(F)F)C2)ccc1C(=O)NC1CCN(C2CC2)C1=O (racemic) [Example 3.15, 2-methyl-4-[(5RS)-5-[3-chloro-2-fluoro-5-(trifluoromethyl)phenyl]-5-(trifluoromethyl)-4H-isoxazol-3-yl]-N-[(3RS)-1-cyclopropyl-2-oxo-pyrrolidin-3-yl]benzamide]	< 3 mg/L
Cc1cc(C2=NOC(c3cc(C(F)(F)F)cc(Cl)c3F)(C(F)(F)F)C2)ccc1C(=O)NCc1nc(C#N)cs1 (racemic) [Example 3.23, N-[(4-cyanothiazol-2-yl)methyl]-2-methyl-4-[(5RS)-5-[3-chloro-2-fluoro-5-(trifluoromethyl)phenyl]-5-(trifluoromethyl)-4H-isoxazol-3-yl]benzamide]	< 1 mg/L
Cc1cc(C2=NOC(c3cc(C(F)(F)F)cc(Cl)c3F)(C(F)(F)F)C2)ccc1C(=O)NN1CCNC1=O (racemic) [Example 3.25, 2-methyl-N-(2-oxoimidazolidin-1-yl)-4-[(5RS)-5-[3-chloro-2-fluoro-5-(trifluoromethyl)phenyl]-5-(trifluoromethyl)-4H-isoxazol-3-yl]benzamide]	< 3 mg/L
Cc1cc(C2=NOC(c3cc(C(F)(F)F)cc(Cl)c3F)(C(F)(F)F)C2)ccc1C(=O)NN1CCN(CC(F)(F)F)C1=O (racemic) [Example 3.26, 2-methyl-N-[2-oxo-3-(2,2,2-trifluoroethyl)imidazolidin-1-yl]-4-[(5RS)-5-[3-chloro-2-fluoro-5-(trifluoromethyl)phenyl]-5-(trifluoromethyl)-4H-isoxazol-3-yl]benzamide]	< 3 mg/L
CO[C@H]1C[C@@H](NC(=O)c2ccc(C3=NOC(c4cc(C(F)(F)F)cc(Cl)c4F)(C(F)(F)F)C3)cc2C)C1 (mixture of isomers) [Example 3.47, 4-[(5RS)-5-[3-chloro-2-fluoro-5-(trifluoromethyl)phenyl]-5-(trifluoromethyl)-4H-isoxazol-3-yl]-N-(cis-3-methoxycyclobutyl)-2-methyl-benzamide]	< 3 mg/L
Cc1cc(C2=NOC(c3cc(C(F)(F)F)cc(Cl)c3F)(C(F)(F)F)C2)ccc1C(=O)N[C@H]1C[C@@H](S(C)(=O)=O)C1 (single isomer, unassigned) [Example 3.49, 4-[(5R or S)-5-[3-chloro-2-fluoro-5-(trifluoromethyl)phenyl]-5-(trifluoromethyl)-4H-isoxazol-3-yl]-2-methyl-N-((cis)3-methylsulfonylcyclobutyl) benzamide]	< 1 mg/L
Cc1cc(C2=NOC(c3cc(C(F)(F)F)cc(Cl)c3F)(C(F)(F)F)C2)ccc1C(=O)NC1CC(F)C1 (single isomer, unassigned) [Example 3.50, N-(3-fluorocyclobutyl)-2-methyl-4-[(5R or S)-5-[3-chloro-2-fluoro-5-(trifluoromethyl)phenyl]-5-(trifluoromethyl)-4H-isoxazol-3-yl]benzamide]	< 1 mg/L
Cc1cc(C2=NOC(c3cc(C(F)(F)F)cc(Cl)c3F)(C(F)(F)F)C2)ccc1C(=O)NC1CSC1 (single isomer, unassigned) [Example 3.51, 2-methyl-4-[(5R or S)-5-[3-chloro-2-fluoro-5-(trifluoromethyl)phenyl]-5-(trifluoromethyl)-4H-isoxazol-3-yl]-N-(thietan-3-yl)benzamide]	< 1 mg/L
Cc1cc(C2=NOC(c3cc(C(F)(F)F)cc(Cl)c3F)(C(F)(F)F)C2)ccc1C(=O)NC1CS(=O)(=O)C1 (single isomer, unassigned) [Example 3.52, 4-[(5R or S)-5-[3-chloro-2-fluoro-5-(trifluoromethyl)phenyl]-5-(trifluoromethyl)-4H-isoxazol-3-yl]-N-(1,1-dioxothietan-3-yl)-2-methyl-benzamide]	< 1 mg/L
Cc1cc(C2=NOC(c3cc(C(F)(F)F)cc(Cl)c3F)(C(F)(F)F)C2)ccc1C(=O)N[C@@H]1CNC1=O (single isomer, unassigned) [Example 3.53, 4-[(5R or S)-5-[3-chloro-2-fluoro-5-(trifluoromethyl)phenyl]-5-(trifluoromethyl)-4H-isoxazol-3-yl]-2-methyl-N-[(3R)-2-oxoazetidin-3-yl]benzamide]	< 1 mg/L
Cc1cc(C2=NOC(c3cc(C(F)(F)F)cc(Cl)c3F)(C(F)(F)F)C2)ccc1C(=O)NC1C[S+]([O-])C1 (single isomer, unassigned) [Example 3.55]	< 1 mg/L
Cc1cc(C2=NOC(c3cc(C(F)(F)F)cc(Cl)c3F)(C(F)(F)F)C2)ccc1C(=O)NC1CN(S(=O)(=O)C(F)(F)F)C1 (single isomer, unassigned) [Example 3.61, 2-methyl-4-[(5R or S)-5-[3-chloro-2-fluoro-5-(trifluoromethyl)phenyl]-5-(trifluoromethyl)-4H-isoxazol-3-yl]-N-[1-(trifluoromethylsulfonyl)azetidin-3-yl]benzamide]	< 3 mg/L
Cc1cc(C2=NOC(c3cc(C(F)(F)F)cc(Cl)c3F)(C(F)(F)F)C2)ccc1C(=O)NC1CC2(COC2)C1 (single isomer, unassigned) [Example 3.62, 2-methyl-N-(2-oxaspiro[3.3]heptan-6-yl)-4-[(5R or S)-5-[3-chloro-2-fluoro-5-(trifluoromethyl)phenyl]-5-(trifluoromethyl)-4H-isoxazol-3-yl]benzamide]	< 1 mg/L
Cc1cc(C2=NO[C@](c3cc(C(F)(F)F)cc(Cl)c3F)(C(F)(F)F)C2)ccc1C(=O)N[C@H]1C[C@H](C(F)(F)F)C1 (single isomer, unassigned) [Example 3.65, 2-methyl-4-[(5R or S)-5-[3-chloro-2-fluoro-5-(trifluoromethyl)phenyl]-5-(trifluoromethyl)-4H-isoxazol-3-yl]-N-[trans-3-(trifluoromethyl)cyclobutyl] benzamide]	< 1 mg/L
Cc1cc(C2=NOC(c3cc(C(F)(F)F)cc(Cl)c3F)(C(F)(F)F)C2)ccc1C(=O)NC1CN(S(=O)(=O)N(C)C)C1 (single isomer, unassigned) [Example 3.66, N-[1-(dimethylsulfamoyl)azetidin-3-yl]-2-methyl-4-[(5R or S)-5-[3-chloro-2-fluoro-5-(trifluoromethyl)phenyl]-5-(trifluoromethyl)-4H-isoxazol-3-yl]benzamide]	< 1 mg/L
Cc1cc(C2=NOC(c3cc(C(F)(F)F)cc(Cl)c3F)(C(F)(F)F)C2)ccc1C(=O)NC1CN(C(N)=O)C1 (single isomer, unassigned) [Example 3.71, 3-[[2-methyl-4-[(5S or R)-5-[3-chloro-2-fluoro-5-(trifluoromethyl)phenyl]-5-(trifluoromethyl)-4H-isoxazol-3-yl]benzoyl]amino]azetidine-1-carboxamide]	< 1 mg/L
Cc1cc(C2=NOC(c3cc(C(F)(F)F)cc(Cl)c3F)(C(F)(F)F)C2)ccc1C(=O)N[C@H]1CN(CC(F)(F)F)C1=O (single isomer, unassigned) [Example 3.72, 4-[(5R or S)-5-[3-chloro-2-fluoro-5-(trifluoromethyl)phenyl]-5-(trifluoromethyl)-4H-isoxazol-3-yl]-2-methyl-N-[(3S)-2-oxo-1-(2,2,2-trifluoroethyl)azetidin-3-yl]benzamide]	< 3 mg/L
Cc1cc(C2=NOC(c3cc(C(F)(F)F)cc(Cl)c3F)(C(F)(F)F)C2)ccc1C(=O)N[C@@H]1CN(CC(F)(F)F)C1=O (single isomer, unassigned) [Example 3.73, 4-[(5R or S)-5-[3-chloro-2-fluoro-5-(trifluoromethyl)phenyl]-5-(trifluoromethyl)-4H-isoxazol-3-yl]-2-methyl-N-[(3R)-2-oxo-1-(2,2,2-trifluoroethyl)azetidin-3-yl]benzamide]	< 1 mg/L
Cc1cc(C2=NO[C@](c3cc(C(F)(F)F)cc(Cl)c3F)(C(F)(F)F)C2)ccc1C(=O)N[C@H]1C[C@@H](C(F)(F)F)C1 (single isomer, unassigned) [Example 3.74, 2-methyl-4-[(5R or S)-5-[3-chloro-2-fluoro-5-(trifluoromethyl)phenyl]-5-(trifluoromethyl)-4H-isoxazol-3-yl]-N-[cis-3-(trifluoromethyl)cyclobutyl] benzamide]	< 1 mg/L
Cc1cc(C2=NOC(c3cc(C(F)(F)F)cc(Cl)c3F)(C(F)(F)F)C2)ccc1C(=O)Nc1cnn(CC#N)c1 (single isomer, unassigned) [Example 3.75, N-[1-(cyanomethyl)pyrazol-4-yl]-2-methyl-4-[(5S or R)-5-[3-chloro-2-fluoro-5-(trifluoromethyl)phenyl]-5-(trifluoromethyl)-4H-isoxazol-3-yl]benzamide]	< 3 mg/L
Cc1cc(C2=NOC(c3cc(C(F)(F)F)cc(Cl)c3F)(C(F)(F)F)C2)ccc1C(=O)N[C@@H]1CCN(CC#N)C1 (single isomer, unassigned) [Example 3.76, 4-[(5S or R)-5-[3-chloro-2-fluoro-5-(trifluoromethyl)phenyl]-5-(trifluoromethyl)-4H-isoxazol-3-yl]-N-[(3R)-1-(cyanomethyl)pyrrolidin-3-yl]-2-methyl-benzamide]	< 1 mg/L
Cc1cc(C2=NOC(c3cc(C(F)(F)F)cc(Cl)c3F)(C(F)(F)F)C2)ccc1C(=O)NCC1(C#N)CC1 (single isomer, unassigned) [Example 3.77, N-[(1-cyanocyclopropyl)methyl]-2-methyl-4-[(5R or S)-5-[3-chloro-2-fluoro-5-(trifluoromethyl)phenyl]-5-(trifluoromethyl)-4H-isoxazol-3-yl]benzamide]	< 1 mg/L
